According to PubChem BioAssay AID2060330 (Molecular Pharmacology Branch, DTP, NCI, 2025):

Tested on: LG0703-F948-PDC spheroids with HUVEC/MSC, viability
Experiment: Anticancer human tumor LG0703-F948-PDC patient-derived lung adenocarcinoma cell line growth inhibition [IpAb]
Settings: for IC50: curve of first compound; for viability, T/C: stronger effect = lower value
Source text: Combinatorial screen of targeted agents with ipatasertib and abemaciclib in multi-cell type tumor spheroids
A high-throughput screen of multi-cell type tumor spheroids was designed to identify active combinations of targeted small molecules and ipatasertib or abemaciclib. Complex spheroids include a stromal component modeled by human endothelial cells (HUVEC) and fibroblasts modeled by human mesenchymal stem cells (MSCs). The concentration ranges selected for each drug and investigational agent were based upon clinically achievable concentrations if the clinical Cmax of the agent was known.
Compounds. The drugs and investigational agents: ipatasertib (NSC767898), abemaciclib(NSC768073), selumetinib (NSC741078), trametinib (758246), adavosertib (NSC754352), everolimus (NSC733504), sapanisertib (NSC764658), vemurafenib (NSC761431), venetoclax (NSC766270), copanlisib (NSC809693), apelisib (NSC765974), palbociblib (NSC758247), vemurafenib (NSC761431), dabrafenib (NSC764134), ravoxertinib (NSC781343), BMS-387032 (NSC767048), sotorasib (NSC818433), talazoparib (NSC767125) and afursertib (NSC778305), were obtained from the National Cancer Institute (NCI) Developmental Therapeutics Program Chemical Repository. The FDA-approved anticancer drug set is available from the NCI Developmental Therapeutics Program. […] The stock solutions were prepared in dimethyl sulfoxide (DMSO, Sigma-Aldrich, St. Louis, MO, cat. D2650) at 800-fold the tested concentration and stored at -70 degrees C prior to their use. All drugs and investigational agents were tested over a range starting from a high concentration at or near the clinical Cmax and decreasing in half-log increments. If the clinical Cmax for an agent had not been determined, the highest concentration tested was 10 microM.
NCI60 Cell Culture. NCI60 cell lines were obtained from the NCI Developmental Therapeutics Program Tumor Repository. For each lot of cells, the Repository performed Applied Biosystems AmpFLSTR Identifiler testing with PCR amplification to confirm consistency with the published Identifier STR profile for each cell line. Cells were kept in continuous culture for no more than 20 passages. The optimal seeding densities for each of the cell lines at each time point assessed were determined prior to performing the concentration response studies. Briefly, the NCI60 human tumor lines were grown as monolayers in RPMI 1640 medium supplemented with 10% FBS and 2 mmol/L L-glutamine.
An additional 9 lines were from the NCI60 cell line panel including MDA-MB-231 breast carcinoma, MDA-MB-468 breast carcinoma, MCF7 breast carcinoma, Hs578T breast carcinoma, MALME-3M melanoma, SK-MEL-2 melanoma, SK-OV-3 ovarian carcinoma, DU-145 prostate carcinoma, PC-3 prostate carcinoma, all cell lines along with major genetic alterations are listed on Table 2. Pooled donor human umbilical vein endothelial cells (HUVEC, Lonza, cat. CC-2519) and human mesenchymal stem cells (hMSC, Lonza, cat. PT-2501) were purchased from Lonza (Walkersville, MD).
PDMR cell lines were grown in complete medium (DC medium): Dulbecco's modified Eagle's medium (DMEM)/F12 supplemented with 5% fetal bovine serum (FBS), 2 mM L-glutamine, 100 U/mL penicillin and 100 µg/ml streptomycin, 0.4 µg/ml hydrocortisone, 10 ng/ml epidermal growth factor (EGF) recombinant human protein, 24 µg/mL adenine, and 0.1 mg/mL primocin. During culture from frozen stock vials, PDMR cells were cultured in the same medium containing 10 µM Y-27632 (see Table 3). The PDCs were cultured in complete DMEM/F12 media without 10 microM Y-27632 dihydrochloride for at least two passages prior to the screen. The pooled donor HUVEC and hMSC were cultured in endothelial cell growth medium 2 (PromoCell, Heidelberg, Germany, cat. C-22011) and mesenchymal stem cell growth medium 2 (PromoCell, cat. C-28009), respectively. For all experiments, HUVEC and hMSC were used at passages </=5.
[…]

[1] = second compound 0.1 µM, first compound 0.0316 µM
[2] = second compound 0.1 µM, first compound 0.1 µM
[3] = second compound 0.1 µM, first compound 0.316 µM
[4] = second compound 0.1 µM, first compound 1 µM
[5] = second compound 0.1 µM, first compound 3.16 µM
[6] = second compound 0.1 µM, first compound 10 µM
[7] = second compound 0.316 µM, first compound 0.0316 µM
[8] = second compound 0.316 µM, first compound 0.1 µM
[9] = second compound 0.316 µM, first compound 0.316 µM
[10] = second compound 0.316 µM, first compound 1 µM
[11] = second compound 0.316 µM, first compound 3.16 µM
[12] = second compound 0.316 µM, first compound 10 µM
[13] = second compound 1 µM, first compound 0.0316 µM
[14] = second compound 1 µM, first compound 0.1 µM
[15] = second compound 1 µM, first compound 0.316 µM
[16] = second compound 1 µM, first compound 1 µM
[17] = second compound 1 µM, first compound 3.16 µM
[18] = second compound 1 µM, first compound 10 µM
[19] = second compound 3.16 µM, first compound 0.0316 µM
[20] = second compound 3.16 µM, first compound 0.1 µM
[21] = second compound 3.16 µM, first compound 0.316 µM
[22] = second compound 3.16 µM, first compound 1 µM
[23] = second compound 3.16 µM, first compound 3.16 µM
[24] = second compound 3.16 µM, first compound 10 µM
[25] = second compound 10 µM, first compound 0.0316 µM
[26] = second compound 10 µM, first compound 0.1 µM
[27] = second compound 10 µM, first compound 0.316 µM
[28] = second compound 10 µM, first compound 1 µM
[29] = second compound 10 µM, first compound 3.16 µM
[30] = second compound 10 µM, first compound 10 µM
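Further: spheroids exposed to compounds for seven days before readout.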
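Wherever viability, T/C is given: T/C percent relative to DMSO vehicle wells set as 100% viability.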

SMILES | IC50 (second compound 0.1 µM) [nM] | IC50 (second compound 0.316 µM) [nM] | IC50 (second compound 1 µM) [nM] | IC50 (second compound 3.16 µM) [nM] | IC50 (second compound 10 µM) [nM] | viability, T/C [1] [%] | viability, T/C [2] [%] | viability, T/C [3] [%] | viability, T/C [4] [%] | viability, T/C [7] [%] | viability, T/C [8] [%] | viability, T/C [9] [%] | viability, T/C [10] [%] | viability, T/C [13] [%] | viability, T/C [14] [%] | viability, T/C [15] [%] | viability, T/C [16] [%] | viability, T/C [19] [%] | viability, T/C [20] [%] | viability, T/C [21] [%] | other results
CC1(C)CCC(CN2CCN(c3ccc(C(=O)NS(=O)(=O)c4ccc(NCC5CCOCC5)c([N+](=O)[O-])c4)c(Oc4cnc5[nH]ccc5c4)c3)CC2)=C(c2ccc(Cl)cc2)C1 + CC(C)NCC(C(=O)N1CCN(c2ncnc3c2C(C)CC3O)CC1)c1ccc(Cl)cc1 | 4060 | 3190 | < 31.6 | < 31.6 | < 31.6 | 90.8 | 82.1 | 77.8 | 72.8 | 71.2 | 60 | 67.4 | 63 | 49.2 | 43 | 53 | 46.5 | 42.1 | 44.4 | 40.9 | viability, T/C [5]: 64.2%; viability, T/C [6]: 10.8%; viability, T/C [11]: 50.4%; viability, T/C [12]: 8.61%; viability, T/C [17]: 44.3%; viability, T/C [18]: 7.68%; viability, T/C [22]: 39.8%; viability, T/C [23]: 30.6%; viability, T/C [24]: 5.93%; viability, T/C [25]: 41%; viability, T/C [26]: 43.3%; viability, T/C [27]: 35.3%; viability, T/C [28]: 37.9%; viability, T/C [29]: 29.2%; viability, T/C [30]: 3.65%
COc1c(OCCCN2CCOCC2)ccc2c3n(c(=NC(=O)c4cnc(N)nc4)nc12)CCN3 + CC(C)NCC(C(=O)N1CCN(c2ncnc3c2C(C)CC3O)CC1)c1ccc(Cl)cc1 | 26.6 | 13.6 | 3.91 | < 3.16 | < 3.16 | 47 | 21.8 | 6.53 | 4.98 | 39.8 | 15.7 | 5.88 | 3.95 | 30.1 | 11.3 | 5.86 | 4.35 | 19.8 | 11.6 | 4.56 | viability, T/C (second compound 0.1 µM, first compound 0.00316 µM): 84.6%; viability, T/C (second compound 0.1 µM, first compound 0.01 µM): 70.1%; viability, T/C (second compound 0.316 µM, first compound 0.00316 µM): 66.5%; viability, T/C (second compound 0.316 µM, first compound 0.01 µM): 51.5%; viability, T/C (second compound 1 µM, first compound 0.00316 µM): 52.1%; viability, T/C (second compound 1 µM, first compound 0.01 µM): 42.5%; viability, T/C (second compound 3.16 µM, first compound 0.00316 µM): 41.9%; viability, T/C (second compound 3.16 µM, first compound 0.01 µM): 35.7%; viability, T/C [22]: 4.47%; viability, T/C (second compound 10 µM, first compound 0.00316 µM): 38.6%; viability, T/C (second compound 10 µM, first compound 0.01 µM): 28.4%; viability, T/C [25]: 25.3%; viability, T/C [26]: 7.44%; viability, T/C [27]: 3.76%; viability, T/C [28]: 2.45%
Cc1nc(NC(=O)N2CCCC2C(N)=O)sc1-c1ccnc(C(C)(C)C(F)(F)F)c1 (stereo not given) + CC(C)NCC(C(=O)N1CCN(c2ncnc3c2C(C)CC3O)CC1)c1ccc(Cl)cc1 | 929 | 366 | 64.8 | < 31.6 | < 31.6 | 77.9 | 76.6 | 64.3 | 50.7 | 59.6 | 60.8 | 52.1 | 36.5 | 54 | 46.7 | 39.7 | 32.1 | 45.5 | 39.7 | 35.8 | viability, T/C [5]: 22.4%; viability, T/C [6]: 2.44%; viability, T/C [11]: 21.1%; viability, T/C [12]: 2.34%; viability, T/C [17]: 13.8%; viability, T/C [18]: 1.78%; viability, T/C [22]: 24.1%; viability, T/C [23]: 13.1%; viability, T/C [24]: 2.03%; viability, T/C [25]: 39.5%; viability, T/C [26]: 33.4%; viability, T/C [27]: 35.9%; viability, T/C [28]: 19%; viability, T/C [29]: 12.3%; viability, T/C [30]: 1.55%
